Assay results from paper PMC8769072, “Proteome‐scale mapping of binding sites in the unstructured regions of the human proteome” (Molecular Systems Biology, 2022).
One block for each molecule: values may come before it. Where a SMILES comes first, the peptide text is derived from it. [ ]: non-standard residue; d: D form. pY = N[C@@H](Cc1ccc(OP(=O)(O)O)cc1)C(=O)O; pS = N[C@@H](COP(=O)(O)O)C(=O)O

What was measured:
KPNA4 ARM = molecular target: T1, KPNA4 ARM (Homo sapiens, UniProt O00629); experiment: FP competition, KPNA4 ARM minor pocket (FITC-NCOR2 probe); type: binding; details: for effect of phosphorylation on the affinity for KPNA4, in words: FP competition with FITC-NCOR2 probe, phosphorylated versus unphosphorylated NCOR1 peptide
T1 construct: O00629; KPNA4; Arm; 68; 487; pETM33/pETM41; Genescript; made in house; host or cells: bacteria (E. coli BL21(DE3) gold is named only for the phage-selection preparations)
Excerpt: Like other importins, KPNA4 has two distinct NLS‐binding pockets on the surface of an armadillo (ARM) repeat fold (major pocket, ARM 2–4; minor pocket, ARM 6–8; Fig 5B) (Smith et al, [2018]). Bipartite NLSs are usually 17–19 amino acids long and engage both pockets. Monopartite NLSs are short basic stretches, divided into five classes (Kosugi et al, [2009]): class I KR[KR]R or K[KR]RK, class II [PR]xxKR[^DE][KR] (where ^ indicates “not”), class III KRx[WFY]xxAF, class IV [RP]xxKR[KR][^DE], and class V LGKR[KR][WFY]. The class I and class II motifs preferentially interact with the major pocket (Kosugi et al, [2009]). In contrast, class III and class IV NLSs preferentially bind to the minor pocket. Using KPNA4 as a bait against the HD2 P8 library we identified 33 peptides found in 32 proteins. Of the 26 proteins for which information was available, 22 proteins were annotated as having nuclear or nucleolar localization in the UniProt database. To gain additional information we combined the data generated for KPNA4 by screening against the complete P8 HD2 library, with the results generated using two relevant sublibraries (the cytoplasmic and nuclear, and nuclear sublibraries) resulting in a set of 92 peptides containing NLS‐like sequences found in 76 proteins. Using these peptides we could generate consensus motifs that matched four of the previously reported NLS classes (Fig 5A; class I‐IV). […] Three peptides bound only to the major pocket. Eight peptides with class III motif and one KRxH‐containing peptide only bound to the minor pocket. Five peptides outcompeted both probe peptides, which may be explained by the amino acid sequence matching both class II and class III motifs (e.g., 1135‐ PSPKRKL ‐1139 in ZNF532; Fig 5), and possibly by cross specificity of the two binding pockets.

[1] = test system: immobilized GST-tagged bait protein domains; experiment: ProP-PD phage selections (HD2 P8, sublibraries, HD2 P3, HD1 P8) with NGS and confidence level; type: binding, human; details: for HD2_endomembrane confidence: HD2 P8 endomembrane sublibrary
[2] = bait CRK_SH3_1_P46108_124_198, library HD2, benchmarking set of validated motif instances, TRUE = motif instance recovered in the ProP-PD selection
[3] = bait MAP1LC3A_ATG8__Q9H492_2_121, confidence level (4 = High, 2-3 = Medium, 1 = Low)
[4] = bait MAP1LC3A_ATG8 (Q9H492 2-121), HD2 library, benchmark motif instance recovered in the ProP-PD selection (TRUE/FALSE)
[5] = bait MAP1LC3A_ATG8 (Q9H492 2-121), HD2 library, confidence level (1-4) of best matching peptide
[6] = bait MAP1LC3A_ATG8 (Q9H492 2-121), HD2 library, specificity score of best matching peptide

T1 sequence (O00629 68-487): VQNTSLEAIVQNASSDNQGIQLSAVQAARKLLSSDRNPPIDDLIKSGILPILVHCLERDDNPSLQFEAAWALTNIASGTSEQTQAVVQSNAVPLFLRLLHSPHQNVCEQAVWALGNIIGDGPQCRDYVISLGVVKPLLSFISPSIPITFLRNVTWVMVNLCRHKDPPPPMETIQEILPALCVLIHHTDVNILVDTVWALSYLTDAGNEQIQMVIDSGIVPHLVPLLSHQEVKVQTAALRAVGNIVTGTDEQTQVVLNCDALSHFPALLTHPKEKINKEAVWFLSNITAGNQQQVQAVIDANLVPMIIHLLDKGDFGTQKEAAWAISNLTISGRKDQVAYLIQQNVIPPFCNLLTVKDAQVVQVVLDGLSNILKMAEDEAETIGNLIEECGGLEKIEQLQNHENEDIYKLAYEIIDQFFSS

- IC50 (KPNA4 ARM): 31 µM
- effect of phosphorylation on the affinity for KPNA4, in words (KPNA4 ARM): minor effects
Molecule: CC[C@H](C)[C@H](NC(=O)[C@H](CC(N)=O)NC(=O)CNC(=O)[C@H](CCC(=O)O)NC(=O)[C@@H](NC(=O)[C@H](CO)NC(=O)[C@H](CCC(=O)O)NC(=O)[C@H](Cc1ccc(O)cc1)NC(=O)[C@H](CO)NC(=O)[C@H](CCCNC(=N)N)NC(=O)[C@H](CCCCN)NC(=O)[C@H](CC(C)C)NC(=O)[C@H](COP(=O)(O)O)NC(=O)[C@@H](NC(=O)[C@H](CCC(=O)O)NC(C)=O)[C@@H](C)CC)C(C)C)C(=O)N[C@@H](CCCCN)C(N)=O [NCOR1 pS1242] (Ac-EI[pS]LKRSYESVEGNIK-NH2)

- IC50 (KPNA4 ARM): 240 µM
- effect of phosphorylation on the affinity for KPNA4, in words (KPNA4 ARM): marked loss of affinity
Molecule: CC[C@H](C)[C@H](NC(=O)[C@H](CC(N)=O)NC(=O)CNC(=O)[C@H](CCC(=O)O)NC(=O)[C@@H](NC(=O)[C@H](CO)NC(=O)[C@H](CCC(=O)O)NC(=O)[C@H](Cc1ccc(O)cc1)NC(=O)[C@H](COP(=O)(O)O)NC(=O)[C@H](CCCNC(=N)N)NC(=O)[C@H](CCCCN)NC(=O)[C@H](CC(C)C)NC(=O)[C@H](CO)NC(=O)[C@@H](NC(=O)[C@H](CCC(=O)O)NC(C)=O)[C@@H](C)CC)C(C)C)C(=O)N[C@@H](CCCCN)C(N)=O [NCOR1 pS1246] (Ac-EISLKR[pS]YESVEGNIK-NH2)

- IC50 (KPNA4 ARM): 21 µM
- effect of phosphorylation on the affinity for KPNA4, in words (KPNA4 ARM): minor effects
Molecule: CC[C@H](C)[C@H](NC(=O)[C@H](CC(N)=O)NC(=O)CNC(=O)[C@H](CCC(=O)O)NC(=O)[C@@H](NC(=O)[C@H](CO)NC(=O)[C@H](CCC(=O)O)NC(=O)[C@H](Cc1ccc(OP(=O)(O)O)cc1)NC(=O)[C@H](CO)NC(=O)[C@H](CCCNC(=N)N)NC(=O)[C@H](CCCCN)NC(=O)[C@H](CC(C)C)NC(=O)[C@H](CO)NC(=O)[C@@H](NC(=O)[C@H](CCC(=O)O)NC(C)=O)[C@@H](C)CC)C(C)C)C(=O)N[C@@H](CCCCN)C(N)=O [NCOR1 pY1247] (Ac-EISLKRS[pY]ESVEGNIK-NH2)

Molecule: VPNVHAAEFVPSFLRG
- best_confidence ([1]; bait PABP-B_PABP__P11940_544_623, HD2 library, confidence level (1-4) of best matching selected peptide): 4
- best_specificity ([1]; bait PABP-B_PABP__P11940_544_623, HD2 library, specificity score of best matching selected peptide): 1
- motif_found ([1]; bait PABP-B_PABP__P11940_544_623, HD2 library, whether the validated benchmark motif instance was recovered in the ProP-PD selection (TRUE/FALSE)): TRUE

Molecule: VPSPASLWPPPPSPAPSST
- motif_found ([1]; library HD2, bait VASP_EVH1__P50552_1_114, validated benchmark motif instance, in_library_check TRUE, TRUE/FALSE = instance recovered in ProP-PD selection): FALSE

Molecule: VPTLPPKQQFLPSSPG
- HD2_nc confidence ([1]; bait CRK_SH3_1_P46108_124_198, HD2 P8 nucleocytoplasmic sublibrary, confidence level (4 = High, 2-3 = Medium, 1 = Low)): 4
- HD2_nc mean counts ([1]; bait CRK_SH3_1_P46108_124_198, HD2 P8 nucleocytoplasmic sublibrary, mean NGS counts over replicate selections): 1917.0
- HD2_nc count proportions ([1]; bait CRK_SH3_1_P46108_124_198, HD2 P8 nucleocytoplasmic sublibrary, mean proportion of NGS counts): 0.01185

Molecule: VQPKQDAFANFANFSK
- HD confidence ([1]; bait AP2B1_adaptin__P63010_700_937, library HD): 2
- HD count proportions ([1]; bait AP2B1_adaptin__P63010_700_937, library HD, mean normalised NGS counts): 0.0004926
- HD mean counts ([1]; bait AP2B1_adaptin__P63010_700_937, library HD, mean raw NGS counts, all selections): 1.25

Molecule: VSGSHCTPPPPYHADP
- best_confidence ([1]; library HD2, bait YAP1_WW_1_P46937_169_207, confidence level of best matching selected peptide (4 High, 2-3 Medium, 1 Low)): 4
- best_specificity ([1]; library HD2, bait YAP1_WW_1_P46937_169_207, specificity score of best matching selected peptide): 0.99
- motif_found ([1]; library HD2, bait YAP1_WW_1_P46937_169_207, validated benchmark motif instance, in_library_check TRUE, TRUE/FALSE = instance recovered in ProP-PD selection): TRUE

Molecule: VSPSTSY
- motif_found ([1]; library HD2, bait USP7_MATH-TRAF__Q93009_53_206, validated benchmark motif instance, in_library_check TRUE, TRUE/FALSE = instance recovered in ProP-PD selection): FALSE

Molecule: VSSAAPSPRGCADGRDADPTEE
- motif_found ([1]; HD2 library, bait TNKS_TANK-peptide-bind__O95271_174_649, known motif instance of the benchmarking set found (TRUE) or not found (FALSE) among selected peptides): FALSE

Molecule: VSVDSIPLEWDHTGDVGGSSSHE
- motif_found ([1]; library HD2, bait KLC1_TPR__Q07866_203_497, whether the validated benchmark motif instance was recovered in the ProP-PD selection (TRUE/FALSE)): FALSE

Molecule: VVDNSPPPALPPKKRQSAPS [RAPGEF1]
- motif_found [1, 2]: FALSE

Molecule: VVHSAGRRFIVSPVPESRL
- motif_found ([1]; bait OXSR1___O95747_434_527, HD2 library, whether the validated benchmark motif instance was recovered in the ProP-PD selection (TRUE/FALSE)): FALSE

Molecule: WADFSSTWPTSTNEKP
- HD2_endomembrane confidence ([1]; bait AP2B1_adaptin__P63010_700_937, confidence level (4 = High, 2-3 = Medium, 1 = Low)): 4

Molecule: WAKFSNDNIKHSQNMR
- HD confidence ([1]; bait AP2B1_adaptin__P63010_700_937, HD1 P8 library, confidence level (4 = High, 2-3 = Medium, 1 = Low)): 4
- HD mean counts ([1]; bait AP2B1_adaptin__P63010_700_937, HD1 P8 library, mean NGS counts over replicate selections): 1.5
- HD count proportions ([1]; bait AP2B1_adaptin__P63010_700_937, HD1 P8 library, mean proportion of NGS counts): 0.0005262

Molecule: WEALNDSVKTSMHWVV
- HD2-1mM_CaCl confidence ([1]; bait CALM1 EF-hand (P0DP23, 2-149), HD2 library selection with 1mM_CaCl, confidence level (4 = High, 2 or 3 = Medium, 1 = Low)): 2
- HD2 confidence ([1]; bait CALM1 EF-hand (P0DP23, 2-149), HD2 library selection, confidence level (4 = High, 2 or 3 = Medium, 1 = Low)): 3

Molecule: WEMVPRHSSWGDVGVG
- HD2_endomembrane confidence [1, 3]: 4

Molecule: WNERQPAPALPPKPPKPTTV [PIK3R1]
- motif_found [1, 2]: TRUE

Molecule: WQPFPDDHSACLRPGS
- HD2 confidence ([1]; bait AP2B1_adaptin__P63010_700_937, HD2 P8 selection, non primary paralogue peptide match, confidence level -4 to 4: 4 = High, 3 or 2 = Medium, 1 = Low, 0 = Filtered/Noise): 3

Molecule: WRVLGLCLLSVGVWGQ
- HD2_cytoplasm confidence ([1]; bait CALM1_EF-hand__P0DP23_2_149, HD2 P8 cytoplasm sublibrary, confidence level (4 = High, 2-3 = Medium, 1 = Low)): 3

Molecule: WTHLSSKEVDPSTGEL
- motif_found [1, 4]: TRUE
- best_confidence [1, 5]: 4
- best_specificity [1, 6]: 1
- motif_found ([1]; bait MAP1LC3B_ATG8 (Q9GZQ8 2-119), HD2 library, benchmark motif instance recovered in the ProP-PD selection (TRUE/FALSE)): TRUE
- best_confidence ([1]; bait MAP1LC3B_ATG8 (Q9GZQ8 2-119), HD2 library, confidence level (1-4) of best matching peptide): 3
- best_specificity ([1]; bait MAP1LC3B_ATG8 (Q9GZQ8 2-119), HD2 library, specificity score of best matching peptide): 1

Molecule: WTMVDENFSTLSLTQS
- HD2_endomembrane confidence [1, 3]: 4

Molecule: WVELPMNSSNGNDNGN
- motif_found [1, 4]: TRUE
- best_confidence [1, 5]: 2
- best_specificity [1, 6]: 1

Molecule: YAKKVGYTPDWIFLLRNVMRI [CLTC 511-517]
- motif_found ([1]; HD2 library, bait MAP1LC3A_ATG8__Q9H492_2_121, benchmark motif instance, in_library_check FALSE, in_library_coverage 0): FALSE
- motif_found ([1]; HD2 library, bait MAP1LC3B_ATG8__Q9GZQ8_2_119, benchmark motif instance, in_library_check FALSE, in_library_coverage 0): FALSE

Molecule: YDREFLLDFQFMPACI
- best_specificity ([1]; library HD2, bait EIF4E_eIF4E__P06730_1_217, best matching peptide): 1
- best_confidence ([1]; library HD2, bait EIF4E_eIF4E__P06730_1_217, confidence level of best matching peptide (4 High, 2-3 Medium, 1 Low)): 2
- motif_found ([1]; library HD2, bait EIF4E_eIF4E__P06730_1_217, whether the validated benchmark motif instance was recovered in the ProP-PD selection (TRUE/FALSE)): TRUE

Molecule: YRLARQRIIQFQARCRAYLVRKAFRHRLWAV [MYO7A 817-833]
- motif_found ([1]; HD2 library, bait CALM1_EF-hand__P0DP23_2_149, benchmark motif instance, in_library_check FALSE, in_library_coverage 0): FALSE

Molecule: YSFFSPSPARKRHAPSPEPAV
- motif_found ([1]; bait KPNA4_Arm (O00629 68-487), HD2 library, benchmark motif instance recovered in the ProP-PD selection (TRUE/FALSE)): FALSE

Molecule: YTSPSLPNISLGLQAT
- best_specificity ([1]; bait ANKRA2_Ank__Q9H9E1_142_313, library HD2, best matching peptide): 1
- best_confidence ([1]; bait ANKRA2_Ank__Q9H9E1_142_313, library HD2, confidence level of best matching peptide (4 = High, 2 or 3 = Medium, 1 = Low)): 4
